Data published in paper PMC11219871, “Epigenetic-based differentiation therapy for Acute Myeloid Leukemia” (Nature Communications, 2024).
Where “and” joins values, the source holds several entries; their conditions need not be identical. Equal entries are not always repeated.

Columns and labels:
[1] = system: ML-2 xenograft in BALB/cA Rag2-/-γc-/- mice; assay: Subcutaneous xenograft model (tumor volume, CD11b q-PCR, H3Ac, body weight); type: in vivo, mouse; conditions: for Tumor volume: ML-2 subcutaneous xenograft, individual mice (Fig 3B); for body weight of mice: subcutaneous ML-2 AML mouse model, individual mice
Experimental: The subcutaneous xenograft models of ML-2 and MV4-11 derived cells, 5 × 10^6 and 10 × 10^6 cells, respectively, diluted in 100 µL of saline solution were subcutaneously inoculated in the back left flank of female BALB/cA Rag2^−/−γc^−/− mice. When tumors became palpable, the mice were randomized into three groups: vehicle, CM-444 and CM-1758, (eight animals/group). Treatment with 10 mg/kg of CM-444 or CM-1758 i.p. was started 4 days after injection when all mice presented subcutaneous tumors and was administered for 5 consecutive days followed by 2 resting days over 3 weeks for the ML-2 model or daily for 2 weeks for the MV4-11 model. The control group received only 80% saline solution, 10% DMSO […] 10% Tween 20 (diluents of CM-444 and CM-1758). Tumor size was analyzed every 2–3 days using the following method: […], where D and d corresponded to the longest and shortest diameter, respectively. The maximal tumor size/burden permitted by the Animal Care and Ethics Committee of the University of Navarra is 2000 mm^3. This maximal tumor size/burden was not exceeded in any case. ML-2 and MV4-11 tumors were explanted for differentiation and global histone acetylation analysis. Histones were extracted, and a western blot of H3Ac was performed as described above. For the differentiation study, RNA was extracted, and q-PCR of CD11b was performed as described above (CD11b sequence primer can be found in Supplementary Table 10).

HDAC7 = target: T1, HDAC7 (Homo sapiens, UniProt Q8WUI4); assay: HDAC assay (Eurofins); type: biochemical
T1 construct: purchased Eurofins (contracted assay service)
T1 sequence (Q8WUI4 1-952): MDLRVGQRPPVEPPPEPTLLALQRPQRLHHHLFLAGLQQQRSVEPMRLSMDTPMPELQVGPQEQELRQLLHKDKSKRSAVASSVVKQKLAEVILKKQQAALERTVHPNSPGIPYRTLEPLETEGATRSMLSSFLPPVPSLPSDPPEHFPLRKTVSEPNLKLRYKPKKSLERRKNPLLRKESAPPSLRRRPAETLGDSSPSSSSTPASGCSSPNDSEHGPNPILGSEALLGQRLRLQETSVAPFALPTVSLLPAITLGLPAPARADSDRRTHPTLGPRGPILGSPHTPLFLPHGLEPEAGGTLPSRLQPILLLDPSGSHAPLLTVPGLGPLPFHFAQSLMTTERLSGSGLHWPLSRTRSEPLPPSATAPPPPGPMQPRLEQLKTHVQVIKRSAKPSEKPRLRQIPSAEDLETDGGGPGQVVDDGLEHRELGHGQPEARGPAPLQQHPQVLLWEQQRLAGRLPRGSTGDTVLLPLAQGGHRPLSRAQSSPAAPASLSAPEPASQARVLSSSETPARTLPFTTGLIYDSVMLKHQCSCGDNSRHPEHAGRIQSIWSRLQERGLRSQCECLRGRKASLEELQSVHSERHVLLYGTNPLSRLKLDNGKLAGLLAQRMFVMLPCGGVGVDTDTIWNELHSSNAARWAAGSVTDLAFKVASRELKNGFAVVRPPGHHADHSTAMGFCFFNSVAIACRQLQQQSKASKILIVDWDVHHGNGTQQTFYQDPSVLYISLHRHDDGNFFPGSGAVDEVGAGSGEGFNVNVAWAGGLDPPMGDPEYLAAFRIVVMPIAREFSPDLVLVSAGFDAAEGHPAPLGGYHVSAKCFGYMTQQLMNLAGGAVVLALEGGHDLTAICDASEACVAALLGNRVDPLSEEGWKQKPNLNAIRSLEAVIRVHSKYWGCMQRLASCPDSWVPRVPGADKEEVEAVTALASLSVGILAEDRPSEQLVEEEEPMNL

Rag2-/-γc-/- mice = assay: Toxicity assay: hematological and liver parameters, liver histology; type: in vivo, mouse; conditions: for ALT (Counts (U/L)) / AST (Counts (U/L)) / Bilirubin (Counts (mg/dl)) / HDL (Counts (mmol/l)) / LCLC3 (Counts (mmol/l)) / UREA (Counts (mg/dl)) / Hematocrit (Counts (%)) / Hemoglobin (Counts (g/dl)) / PLT (Counts (K/O)) / RBC (Counts (K/O)) / WBC (Counts (K/O)): healthy Rag2-/-γc-/- mice, individual mice, 10 mg/kg; for ALT (Counts (U/L)) / AST (Counts (U/L)) / Bilirubin (Counts (mg/dl)) / HDL (Counts (mmol/l)) / LCLC3 (Counts (mmol/l)) / UREA (Counts (mg/dl)): 10 mg/kg i.p. daily for 3 weeks then 7-day washout; for Hematocrit (Counts (%)) / Hemoglobin (Counts (g/dl)) / PLT (Counts (K/O)) / RBC (Counts (K/O)) / WBC (Counts (K/O)): 10 mg/kg i.p. daily for 3 weeks
Experimental: After treating Rag2^−/−γc^−/− mice with i.p. […] Hematological and liver parameters were measured.
Hematological parameters, including white blood cells, red blood cells, platelet count, hemoglobin and hematocrit, were measured on a Hemavet Hematology Analyzer (Drew Scientific). Liver enzymes (albumin, alkaline phosphatase, aspartate transaminase, alanine transaminase), cholesterol, bilirubin, urea and bile acid levels were analyzed from mice serum using a C311 Cobas Analyzer (Roche Diagnostics).
Mice livers were fixed in paraformaldehyde at 4% for 6–8 h, washed twice with saline solution and stored in 70% ethanol. Samples were included in paraffin, and 3-µm serial sections were cut, deparaffinated, and stained with hematoxylin–eosin.

COc1cc2nc(-c3ccc(C)o3)cc(NCC3CCN(c4ncc(C(=O)NO)cn4)CC3)c2cc1OC [CM-444, 2-[4-[[[6,7-dimethoxy-2-(5-methyl-2-furyl)-4-quinolyl]amino]methyl]-1-piperidyl]pyrimidine-5-carbohydroxamic acid]
CD11b expression in explanted tumors ([1]; ML-2 s.c., 10 mg/kg i.p.): significant increase in CD11b expression
H3Ac levels in tumors ([1]; ML-2 s.c., 10 mg/kg i.p.): increase in H3Ac levels
tumor growth ([1]; ML-2 s.c., 10 mg/kg i.p., 5 days on/2 off, 3 weeks): inhibited tumor growth significantly
Tumor volume ([1]; day 0, in mm³): 0
Tumor volume ([1]; day 8): 50.29 and 0 (2×) and 44.4222 and 26.1593 and 17.7985 and 33.6927 and 34.1731
Tumor volume ([1]; day 11, in mm³): 57.5494 and 54.0642 and 29.9608 and 34.453 and 70.3613 and 12.6567 and 13.356 and 62.0802
Tumor volume ([1]; day 13, in mm³): 71.0807 and 75.9644 and 34.9942 and 17.4964 and 64.0599 and 59.7475 and 31.61 and 81.1976
Tumor volume ([1]; day 15, in mm³): 260.999 and 204.675 and 90.5639 and 88.4341 and 135.48 and 171.734 and 101.038 and 206.002
Tumor volume ([1]; day 18, in mm³): 480.691 and 730.912 and 126.029 and 148.778 and 375.191 and 457.823 and 357.768 and 468.956
Tumor volume ([1]; day 20, in mm³): 765.508 and 824.168 and 527.843 and 397.65 and 611.294 and 688.039 and 576.047 and 641.268
Relative H3Ac/H3 total levels ([1]; after in vivo treatment, subcutaneous ML-2 mouse model, western blot, individual tumors): 1.215 and 1.184 and 2.112 and 1.745 and 1.414 and 2.588
body weight of mice ([1]; day 4, in g (unit assumed)): 25.5 and 22.7 and 24.1 and 24.4 and 23.6 and 21.4 and 26.1 and 23.7
body weight of mice ([1]; day 6, in g (unit assumed)): 24.2 and 22.1 and 23.5 and 23 and 22.4 and 20.6 and 24.7 and 22.8
body weight of mice ([1]; day 8): 23 and 21.7 (2×) and 22.6 and 22.9 and 19.8 and 23.2 and 21.8
body weight of mice ([1]; day 11, in g (unit assumed)): 25 and 22 and 24 and 24.2 and 22.6 and 21.1 and 24.3 and 21.9
body weight of mice ([1]; day 13, in g (unit assumed)): 24.5 and 21.9 and 23.2 and 22.6 and 22.9 and 21.2 and 24.7 and 22.3
body weight of mice ([1]; day 15): 24.9 and 22.5 and 22.9 and 22.2 (2×) and 21.3 and 24.8 and 22.1
body weight of mice ([1]; day 18, in g (unit assumed)): 24.7 and 23.2 and 23.6 and 22 and 23 and 21.6 and 24.9 and 23.5
body weight of mice ([1]; day 20): 24.4 and 23.5 and 23.1 (2×) and 20.8 and 21.2 and 25.5 and 23.3
CD11b expression from tumors measured by q-PCR ([1]; tumors of the subcutaneous ML-2 model, individual tumors (Fig 3C)): 4.258 log10 (2-ΔΔCt) and 6.115 log10 (2-ΔΔCt) and 1.258 log10 (2-ΔΔCt) and 2.581 log10 (2-ΔΔCt) and 3.258 log10 (2-ΔΔCt)
IC50 (HDAC7): 120 nM
inhibition at 10 µM (HDAC7; 10 µM): 89%
tolerability (Rag2-/-γc-/- mice; 10 mg/kg i.p. daily over 3 weeks, 1-week washout, Rag2-/-γc-/- mice): well tolerated
ALT (Counts (U/L)) (Rag2-/-γc-/- mice; Week 3): 11.5 U/L and 2 U/L and 10.5 U/L
AST (Counts (U/L)) (Rag2-/-γc-/- mice; Week 3): 32 U/L and 193 U/L and 55.5 U/L and 92 U/L
Bilirubin (Counts (mg/dl)) (Rag2-/-γc-/- mice; Week 3): 0 mg/dl (2×) and 0.15 mg/dl and 0.05 mg/dl
HDL (Counts (mmol/l)) (Rag2-/-γc-/- mice; Week 3): 1.85 mmol/l (2×) and 0.7 mmol/l and 2.75 mmol/l
LCLC3 (Counts (mmol/l)) (Rag2-/-γc-/- mice; Week 3): 0.15 mmol/l and 0.25 mmol/l (2×) and 0.1 mmol/l
UREA (Counts (mg/dl)) (Rag2-/-γc-/- mice; Week 3): 11.5 mg/dL and 19.7 mg/dL and 22.3 mg/dL and 21.65 mg/dL
ALT (Counts (U/L)) (Rag2-/-γc-/- mice; Week 4): 19.5 U/L and 11.7 U/L and 32.4 U/L and 21 U/L
AST (Counts (U/L)) (Rag2-/-γc-/- mice; Week 4): 128.4 U/L and 47.1 U/L and 73.2 U/L and 160.2 U/L
Bilirubin (Counts (mg/dl)) (Rag2-/-γc-/- mice; Week 4): 0.09 mg/dl (2×) and 0.06 mg/dl and 0.12 mg/dl
HDL (Counts (mmol/l)) (Rag2-/-γc-/- mice; Week 4): 2.61 mmol/l (2×) and 2.16 mmol/l and 2.58 mmol/l
LCLC3 (Counts (mmol/l)) (Rag2-/-γc-/- mice; Week 4): 0.3 mmol/l and 0.21 mmol/l (2×) and 0.24 mmol/l
UREA (Counts (mg/dl)) (Rag2-/-γc-/- mice; Week 4): 27.78 mg/dL and 27.48 mg/dL and 30.3 mg/dL and 24.12 mg/dL
Hematocrit (Counts (%)) (Rag2-/-γc-/- mice; 7d Washout): 52.1% and 56.9% and 53.3% and 53.1%
Hemoglobin (Counts (g/dl)) (Rag2-/-γc-/- mice; 7d Washout): 17.9 g/dL and 18 g/dL and 17.7 g/dL and 17.4 g/dL
PLT (Counts (K/O)) (Rag2-/-γc-/- mice; 7d Washout): 1470 K/O and 1489 K/O and 1608 K/O and 1482 K/O
RBC (Counts (K/O)) (Rag2-/-γc-/- mice; 7d Washout): 10.26 K/O and 10.79 K/O and 10.39 K/O and 10.19 K/O
WBC (Counts (K/O)) (Rag2-/-γc-/- mice; 7d Washout): 5.36 K/O and 7.2 K/O and 1.48 K/O and 3.02 K/O
Hematocrit (Counts (%)) (Rag2-/-γc-/- mice; Week 1): 47.7% and 44.8% and 42.1% and 46%
Hemoglobin (Counts (g/dl)) (Rag2-/-γc-/- mice; Week 1): 18 g/dL and 18.2 g/dL and 17.7 g/dL and 17.8 g/dL
PLT (Counts (K/O)) (Rag2-/-γc-/- mice; Week 1): 906 K/O and 830 K/O and 622 K/O and 877 K/O
RBC (Counts (K/O)) (Rag2-/-γc-/- mice; Week 1): 10.04 K/O and 9.45 K/O and 9.05 K/O and 9.73 K/O
WBC (Counts (K/O)) (Rag2-/-γc-/- mice; Week 1): 3.7 K/O and 3.24 K/O and 5.4 K/O and 2.32 K/O
Hematocrit (Counts (%)) (Rag2-/-γc-/- mice; Week 2): 50.2% and 53.9% and 53.4% and 41.4%
Hemoglobin (Counts (g/dl)) (Rag2-/-γc-/- mice; Week 2): 17.9 g/dL and 18.4 g/dL and 17.5 g/dL and 15.1 g/dL
PLT (Counts (K/O)) (Rag2-/-γc-/- mice; Week 2): 1887 K/O and 1805 K/O and 1778 K/O and 1467 K/O
RBC (Counts (K/O)) (Rag2-/-γc-/- mice; Week 2): 10.43 K/O and 10.72 K/O and 10.28 K/O and 8.62 K/O
WBC (Counts (K/O)) (Rag2-/-γc-/- mice; Week 2): 5.84 K/O and 4.8 K/O and 3.6 K/O and 7.26 K/O
Hematocrit (Counts (%)) (Rag2-/-γc-/- mice; Week 3): 43.7% and 49.1% and 49.8% and 51%
Hemoglobin (Counts (g/dl)) (Rag2-/-γc-/- mice; Week 3): 11.4 g/dL and 17.4 g/dL and 17.9 g/dL and 18.3 g/dL
PLT (Counts (K/O)) (Rag2-/-γc-/- mice; Week 3): 730 K/O and 1171 K/O and 1358 K/O and 1362 K/O
RBC (Counts (K/O)) (Rag2-/-γc-/- mice; Week 3): 8.57 K/O and 10.02 K/O and 10.36 K/O and 10.9 K/O
WBC (Counts (K/O)) (Rag2-/-γc-/- mice; Week 3): 1.16 K/O and 8.64 K/O and 6.22 K/O and 6.1 K/O
